The results in this text go back to US5874461A, “Use of Nebivolol as an anti-atherogenic” (priority 1995, dated 1999).

Each structure is given as a SMILES string. Read-outs that look alike come from different tables or passages of the source.

Test [1] has as its system primary embryonic hippocampal cultures. The test can be described thus: In vitro neuroprotection against nitric oxide and superoxide radicals (inhibition of LDH release). As to conditions: for inhibition at 1 µM / inhibition at 0.1 µM: Rattus norvegicus, read-out: % neuroprotection, mean ± SD; for inhibition at 1 µM: 10^-6 M; for inhibition at 0.1 µM: 10^-7 M; for neuroprotection against DDTC or SNP: one or the other treatment paradigm. The format is cell-based, rats. How it is done: Primary embryonic hippocampal cultures were prepared essentially as described previously (Pauwels et al., Van Aschouw, H. P., Peeters, L., Moeremans, M., Leysen, J. E. (1992) Chronic treatment with sabeluzole protects cultured rat brain neurons from the neurotoxic effects of excitatory amino acids. Synapse, 12:271-280). Hippocampal formations of rats at embryonic day 17 were dissected and dissociated in 0.05% trypsin, 0.1 mg/ml DNase I in DMEM (Dulbecco Modified Eagle Medium). Heat-inactivated horse serum (HS) was added to a concentration of 4%, and the cells were centrifuged, washed with DMEM, and resuspended in DMEM/Ham's F12 (3:1) containing 10% HS. The cells were plated at a density of 4×10^5 cells/cm^2 in poly L-lysine (0.001%) precoated multiwell-24 plates. On day 1 in culture, the medium was changed to chemically defined CDM-R12 medium (DMEM-HEPES/Ham's F12 (3:1) containing 0.26% bovine serum albumin, 30 nM sodium selenite, 3 nM 3,3',5 triiodo-L-thyronine, 0.35 μM retinol, 0.3 μM retinol acetate, 2.3 μM DL-a-tocopherol, 2.1 μM DL-a-tocopherol acetate, 3.6 μM linolenic acid, 3.6 μM linoleic acid, 0.125% human transferrin, […], 57.7 nM corticosterone, 49 U/I insulin, 0.4 μM biotin, 10 μM L-carnitine, 83 μM D(+)-galactose, 3.3 μM glutathione, 10 μM ethanolamine, 0.1 mM putrescine; Romijn, H. J., van Huizen, F., Wolters, P. S. (1984) Towards an improved serum-free, chemically defined medium for long-term culturing of cerebral cortex tissue. Neurosci. Behav. Rev., 8:301-334). Acute and prolonged pretreatment of the, cultures was essentially as described previously (Pauwels et al., 1992). Drugs were dissolved, and diluted in 10% or 1% hydroxypropyl-β-cyclodextrin such that the final concentrations of the solvent in the acute and chronic exposures were 0.1% and 0.01% respectively. Compound A as used in the following examples is [(RRSR)+(RRRS)+(SSSR) +(SSRS)]-α-[[[2-(chroman-2-yl)-2-hydroxy-ethyl]amino]methyl]-6-hydroxy-2-chromanmethanol ethanedioate (1:1).
For acute treatment, drug, or solvent was added to the cultures on day 7. After 20 min the medium was replaced with 200 μl chemically defined DMEM medium (the same composition of CDM-R12 medium but without Ham's F12) (control), or chemically defined DMEM medium containing the oxidative stress trigger. Oxidative stress triggers used were 1 mM sodium nitroprusside (SNP, a nitric oxide radical generating compound), or 7.5-10 mM diethyldithiocarbamate (DDTC, a superoxide dismutase inhibitor) and the test compound.
For prolonged pretreatment experiments, drug (concentration range 0.1 nM-10 μM) was added to the serum-free medium on days 1 and 4 of the culture. On day 7, the cultures were washed once with DMEM, and incubated with 0.2 ml chemically defined DMEM medium for 2 h at 37° C. The cells were washed and the medium was replaced by 0.2 ml chemically defined DMEM medium (control), or chemically defined DMEM medium containing the oxidative stress trigger (se above).
For both the acute experiment and the prolonged pretreatment experiment, extracellular and intracellular LDH (lactate dehydrogenase) activities were measured spectrophotometrically at 340 nm with an EPOS Analyzer 5060, according to the method of Bergmeyer (Bergmeyer, H. U. (1974) Biochemical reagents. In: Methods of Enzymatic Analysis. H. U. Bergmeyer, eds. Academic Press, New York, 2nd Ed., pp. […]). Extracellular LDH activity in the culture medium and cytoplasmic LDH activity measured after lysis of the cells in 1 ml H2 O, were used to calculate total LDH activity and % released LDH. % Neuroprotection refers to % inhibition of LDH release, where oxidative stress trigger-induced LDH release is defined as 0% protection, and basal (control) level of LDH release is defined as 100% protection.
Neuronal primary hippocampal cultures were grown in CDM-R12 medium for 7 days. Test compounds were either administered on days 1 and 4 of culture (prolonged pretreatment) or on day 7 of culture (acute treament). […]
(In general: Release of lactate dehydrogenase indicates damage to the cell membrane.)

In test [2] the test system is C6 glioma cells. Description: Fluorescence measurement of intracellular peroxides in C6 glioma cells after glutamate. It is filed as cell-based. As to conditions: for glutamate-mediated increase in peroxidation: 10 mM glutamate; for Intracellular peroxides (mean ± SD, n): glutamate 10 mM, without or with compound 1 μM. An excerpt:
Competitive inhibition by glutamate of cystine uptake in certain cells leads to glutathione depletion and oxidative stress. This oxidative stress model has been described for glial C6 glioma cells (Kato et al., 1992. A mechanism for glutamate toxicity in the C6 glioma cells involving inhibition of cystine uptake leading to glutathione depletion. Neurosci. 48:903-914) and for the neuronal cell line N18RE105 (Murphy et al., 1989. Glutamate toxicity in a neuronal cell line involves inhibition of cystine transport leading to oxidative stress. Neuron 2:1547-1558).
Cell culture: The C6 glioma cell line (American Type Culture Collection, CCL 107) was cultivated in DMEM supplemented with 2 or 4 mM glutamine, 1 mM pyruvate and 5 or 10% heat-inactivated foetal calf serum. Cultures were maintained at 37° C. in an air/5~10% CO2, water saturated atmosphere.
Glutathione depletion and evaluation of drugs as antioxidants: Experiments were carried out with cultures plated at 30,000~50,000 cells/cm^2 in 24-well culture plates (for toxicity and lipid peroxide measurements) or at 136,000 cells/cm^2 in 96-well culture plates (for GSH determination). After 8-24 hr, the cultures were switched to culture medium in the absence or presence of the cystine uptake inhibitor glutamate at a final concentration of 10 mM. In order to test drugs for inhibition of oxidative stress, the drug was added together with glutamate (final concentration of solvent was 0.01% hydroxypropyl-β-cylodextrin, 0.1% DMSO). Intracellular glutathione levels were measured after 6~8 hr, lipid peroxides were measured after 14~20 hr, and toxicity and protection were analysed after 48 hr using an LDH assay according to the method of Bergmeyer and Bernt (UV-assay with pyruvate and NADH. In: Methods of Enzymatic Analysis. 1974. H. U. Bergmeyer, ed. Acad. Press, New York, 2nd Ed., pp 574-579).
Fluorescence measurement of intracellular peroxides: Formation of intracellular peroxides was detected using 6-carboxy-2',7'-dichlorodihydrofluorescin diacetate, di(acetoxymethyl ester) (C-DCDHF, Molecular Probes). C-DCDHF was dissolved in DMSO at a concentration of 10 mM and stored at -70° C. under nitrogen. After exposure of the culture to the glutathione depleting agents, the cells were loaded with 10 μM C-DCDHF for one hour at 37° C. Medium was aspirated off, PBS was added to the cells, and plates were read in a Cytofluor II microplate reader (PerSeptive Biosystems). Excitation and emission wavelength were selected with a 485/530 nm filter pair. The results were expressed in relative fluorescence units/μg protein.

The mark [3] stands for this setting: DDTC trigger, prolonged pretreatment.
[4] abbreviates: SNP trigger, prolonged pretreatment.

As to `Oc1ccc2c(c1)CCC(C(O)CNCC(O)C1CCc3ccccc3O1)O2` (stereo not drawn) [Compound A, [(RRSR)+(RRRS)+(SSSR) +(SSRS)]-α-[[[2-(chroman-2-yl)-2-hydroxy-ethyl]amino]methyl]-6-hydroxy-2-chromanmethanol ethanedioate (1:1)], the inhibition at 1 µM in test [1] (DDTC trigger, acute treatment) was 30 ± 28%; in test [1] (setting [3]) it was under 25%; in test [1] (SNP trigger, acute treatment) it was under 25%; in test [1] (setting [4]) it was 38%. For the same compound, the inhibition at 0.1 µM was 35 ± 32% in test [1] (DDTC trigger, acute treatment); under 25% in test [1] (setting [3]); under 25% in test [1] (SNP trigger, acute treatment); 39 ± 13% in test [1] (setting [4]). Moreover, the “neuroprotection against DDTC or SNP” value in test [1] was “can confer neuroprotection”. The “glutamate-mediated increase in peroxidation” value in test [2] is “inhibited the glutamate-mediated increase in peroxidation”. In addition, the “Intracellular peroxides (mean ± SD, n)” value in test [2] is 137 ± 8 Relative fluorescence units/μg.
For the compound `O[C@H](CNC[C@@H](O)[C@H]1CCc2cc(F)ccc2O1)[C@@H]1CCc2cc(F)ccc2O1` (relative stereo) [nebivolol, (RSSS) and (SRRR) α,α'-iminobis(methylene)bis[6-fluoro-2-chroman-methanol]], the inhibition at 1 µM in test [1] (DDTC trigger, acute treatment) was 29 ± 16%; in test [1] (setting [3]) it was 37 ± 23%; in test [1] (SNP trigger, acute treatment), under 25%; in test [1] (setting [4]), 36 ± 18%. For the same compound, the inhibition at 0.1 µM in test [1] (DDTC trigger, acute treatment) was 32 ± 28%; in test [1] (setting [3]), under 25%; in test [1] (SNP trigger, acute treatment) it was under 25%; in test [1] (setting [4]), 26 ± 13%. Besides, in test [1], the “neuroprotection against DDTC or SNP” value is recorded as “can confer neuroprotection”. Moreover, the “glutamate-mediated increase in peroxidation” value in test [2] is “inhibited the glutamate-mediated increase in peroxidation”. In test [2], the “Intracellular peroxides (mean ± SD, n)” value was 155 ± 13 Relative fluorescence units/μg.
